# From ChEMBL document CHEMBL4725309, “Potent, non-covalent reversible BTK inhibitors with 8-amino-imidazo[1,5-a]pyrazine core featuring 3-position bicyclic ring substitutes” (Bioorg Med Chem Lett, 2020)
# Assays:
# [1] = target: Tyrosine-protein kinase BTK (Homo sapiens, UniProt Q06187); assay: Inhibition of recombinant full length BTK (unknown origin) expressed in baculovirus infected Sf9 cells using Biotin-EQEDEPEGDYFEWLE-NH2 peptide as substrate incubated for 60 mins followed by further incubation with substrate and ATP for 120 mins by TR-FRET assay
# [2] = target: Tyrosine-protein kinase Fgr (Homo sapiens, UniProt P09769); assay: Inhibition of FGR (unknown origin)
# [3] = target: Tyrosine-protein kinase Fyn (Homo sapiens, UniProt P06241); assay: Inhibition of FYN (unknown origin)
# [4] = target: Tyrosine-protein kinase Lyn (Homo sapiens, UniProt P07948); assay: Inhibition of LYNB (unknown origin)
# [5] = target: T1, Tyrosine-protein kinase TXK (Homo sapiens, UniProt P42681); assay: Inhibition of TXK (unknown origin)
# T1 sequence (P42681 whole entry): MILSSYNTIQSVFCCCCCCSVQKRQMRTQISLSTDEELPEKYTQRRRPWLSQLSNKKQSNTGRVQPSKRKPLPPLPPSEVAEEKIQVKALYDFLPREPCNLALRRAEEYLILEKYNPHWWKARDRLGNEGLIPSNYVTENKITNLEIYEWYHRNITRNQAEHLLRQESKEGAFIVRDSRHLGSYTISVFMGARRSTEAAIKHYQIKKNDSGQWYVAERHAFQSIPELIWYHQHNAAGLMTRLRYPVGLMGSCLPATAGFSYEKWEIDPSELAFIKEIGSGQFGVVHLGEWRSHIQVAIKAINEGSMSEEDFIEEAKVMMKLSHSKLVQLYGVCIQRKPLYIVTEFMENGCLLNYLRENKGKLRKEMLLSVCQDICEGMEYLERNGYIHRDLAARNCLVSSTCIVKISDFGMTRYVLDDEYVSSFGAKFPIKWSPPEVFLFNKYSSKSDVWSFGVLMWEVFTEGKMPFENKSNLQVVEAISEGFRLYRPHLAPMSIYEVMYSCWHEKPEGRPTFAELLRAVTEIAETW
# Homo sapiens [6] = species: Homo sapiens; assay: Selectivity index, ratio of IC50 for CSK (unknown origin) to IC50 for recombinant full length BTK (unknown origin) expressed in baculovirus infected Sf9 cells
# Homo sapiens [7] = species: Homo sapiens; assay: Selectivity index, ratio of IC50 for FGR (unknown origin) to IC50 for recombinant full length BTK (unknown origin) expressed in baculovirus infected Sf9 cells
# Homo sapiens [8] = species: Homo sapiens; assay: Selectivity index, ratio of IC50 for LCK (unknown origin) to IC50 for recombinant full length BTK (unknown origin) expressed in baculovirus infected Sf9 cells
# Homo sapiens [9] = species: Homo sapiens; assay: Selectivity index, ratio of IC50 for SRC (unknown origin) to IC50 for recombinant full length BTK (unknown origin) expressed in baculovirus infected Sf9 cells
# Homo sapiens [10] = species: Homo sapiens; assay: Selectivity index, ratio of IC50 for TEC (unknown origin) to IC50 for recombinant full length BTK (unknown origin) expressed in baculovirus infected Sf9 cells
# Homo sapiens [11] = species: Homo sapiens; assay: Selectivity index, ratio of IC50 for TXK (unknown origin) to IC50 for recombinant full length BTK (unknown origin) expressed in baculovirus infected Sf9 cells
# [12] = Tmax in Wistar Han rat at 5 mg/kg, po; assay type: ADME, organism-based; conditions: in vivo
# [13] = Clearance in Beagle dog at 1 mg/kg, iv; assay type: ADME, organism-based, Canis lupus familiaris; conditions: in vivo
# [14] = Volume of distribution at steady state in Beagle dog at 1 mg/kg, iv; assay type: ADME, organism-based, Canis lupus familiaris; conditions: in vivo, read-out: Vdss
# [15] = AUC in Beagle dog at 1 mg/kg, iv; assay type: ADME, organism-based, Canis lupus familiaris; design: dose 1 mg/kg; conditions: in vivo
# [16] = Half life in Beagle dog at 1 mg/kg, iv; assay type: ADME, organism-based, Canis lupus familiaris; conditions: in vivo
# [17] = Cmax in Beagle dog at 2 mg/kg, po; assay type: ADME, organism-based, Canis lupus familiaris; design: route oral, dose 2 mg/kg; conditions: in vivo
# [18] = Tmax in Beagle dog at 2 mg/kg, po; assay type: ADME, organism-based, Canis lupus familiaris; conditions: in vivo
# [19] = Oral bioavailability in Beagle dog at 2 mg/kg; assay type: ADME, organism-based, Canis lupus familiaris; conditions: in vivo
# Rattus norvegicus = assay: Antiarthritic activity in Lewis rat model of collagen-induced arthritis assessed as decrease in paw thickness at 1 to 30 mg/kg, po qd and measured for 30 days; assay type: functional, organism-based; conditions: dose mg/kg 1-30, time 30.0 day
# Sequence of Tyrosine-protein kinase Fyn (P06241 whole entry): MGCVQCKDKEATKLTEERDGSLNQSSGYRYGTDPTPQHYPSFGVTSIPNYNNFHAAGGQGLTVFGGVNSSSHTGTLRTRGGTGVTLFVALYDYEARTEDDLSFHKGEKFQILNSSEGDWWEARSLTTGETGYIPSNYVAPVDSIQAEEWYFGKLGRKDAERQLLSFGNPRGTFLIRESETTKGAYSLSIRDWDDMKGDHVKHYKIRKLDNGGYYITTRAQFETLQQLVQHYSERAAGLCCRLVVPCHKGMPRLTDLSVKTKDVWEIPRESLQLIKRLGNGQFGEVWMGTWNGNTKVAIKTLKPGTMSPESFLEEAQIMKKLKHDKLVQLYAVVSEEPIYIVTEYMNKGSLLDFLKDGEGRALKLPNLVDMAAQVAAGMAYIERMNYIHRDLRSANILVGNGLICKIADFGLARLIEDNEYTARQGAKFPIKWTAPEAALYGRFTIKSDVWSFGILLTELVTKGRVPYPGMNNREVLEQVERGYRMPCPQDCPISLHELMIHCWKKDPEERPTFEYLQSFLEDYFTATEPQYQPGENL
# Sequence of Tyrosine-protein kinase Lyn (P07948 whole entry): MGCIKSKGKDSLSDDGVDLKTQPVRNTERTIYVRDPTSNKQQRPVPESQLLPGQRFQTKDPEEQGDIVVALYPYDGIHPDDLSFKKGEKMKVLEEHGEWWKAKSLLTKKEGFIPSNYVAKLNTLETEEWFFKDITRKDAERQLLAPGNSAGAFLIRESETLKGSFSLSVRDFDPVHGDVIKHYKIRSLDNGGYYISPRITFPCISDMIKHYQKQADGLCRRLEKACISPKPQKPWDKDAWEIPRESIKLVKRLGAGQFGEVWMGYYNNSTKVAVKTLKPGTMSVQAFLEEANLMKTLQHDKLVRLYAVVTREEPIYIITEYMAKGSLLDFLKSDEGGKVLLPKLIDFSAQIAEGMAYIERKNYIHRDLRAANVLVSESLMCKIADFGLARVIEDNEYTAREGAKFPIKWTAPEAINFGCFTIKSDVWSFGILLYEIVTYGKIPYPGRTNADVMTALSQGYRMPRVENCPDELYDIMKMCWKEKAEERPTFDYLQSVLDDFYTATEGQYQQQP
# Sequence of Tyrosine-protein kinase BTK (Q06187 whole entry): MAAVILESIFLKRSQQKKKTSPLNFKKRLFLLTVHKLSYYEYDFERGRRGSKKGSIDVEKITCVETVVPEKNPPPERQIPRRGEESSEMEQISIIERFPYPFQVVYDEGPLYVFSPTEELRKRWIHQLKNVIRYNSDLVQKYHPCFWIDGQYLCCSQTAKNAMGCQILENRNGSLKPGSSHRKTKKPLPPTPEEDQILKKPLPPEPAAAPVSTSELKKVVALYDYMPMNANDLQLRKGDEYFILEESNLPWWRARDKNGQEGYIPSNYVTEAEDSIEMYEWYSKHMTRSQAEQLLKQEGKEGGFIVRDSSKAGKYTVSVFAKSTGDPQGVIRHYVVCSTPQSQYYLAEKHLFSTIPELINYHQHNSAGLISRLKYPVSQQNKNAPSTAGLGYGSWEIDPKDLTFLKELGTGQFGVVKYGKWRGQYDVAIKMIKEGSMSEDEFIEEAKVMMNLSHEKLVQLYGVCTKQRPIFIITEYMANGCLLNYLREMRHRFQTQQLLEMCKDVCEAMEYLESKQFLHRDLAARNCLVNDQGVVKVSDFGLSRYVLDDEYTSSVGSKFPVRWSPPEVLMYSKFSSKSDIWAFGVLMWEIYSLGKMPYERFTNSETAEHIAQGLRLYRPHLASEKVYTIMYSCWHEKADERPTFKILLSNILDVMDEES
# Sequence of Tyrosine-protein kinase Fgr (P09769 whole entry): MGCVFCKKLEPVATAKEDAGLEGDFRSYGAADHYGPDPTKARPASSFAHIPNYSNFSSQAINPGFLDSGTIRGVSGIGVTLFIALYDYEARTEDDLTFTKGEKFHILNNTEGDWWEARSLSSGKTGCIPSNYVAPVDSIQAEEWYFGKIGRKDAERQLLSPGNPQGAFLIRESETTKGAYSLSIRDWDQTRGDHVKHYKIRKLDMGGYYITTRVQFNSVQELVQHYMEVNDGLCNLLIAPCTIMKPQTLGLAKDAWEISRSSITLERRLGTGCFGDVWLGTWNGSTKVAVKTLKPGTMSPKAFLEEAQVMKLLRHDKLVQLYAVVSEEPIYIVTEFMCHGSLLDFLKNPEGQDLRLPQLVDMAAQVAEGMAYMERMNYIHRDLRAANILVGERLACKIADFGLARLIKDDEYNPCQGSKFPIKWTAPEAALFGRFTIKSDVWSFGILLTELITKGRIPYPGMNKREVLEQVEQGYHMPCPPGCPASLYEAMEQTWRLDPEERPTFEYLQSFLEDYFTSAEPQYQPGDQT
IC50 [3] [nM],IC50 [4] [nM],IC50 [5] [nM],Tmax [12] [h],clearance [13] [mL/min/kg],Vd [14] [L/kg],AUC [15] [µM·h],half-life [16] [h],Cmax [17] [nM],Tmax [18] [h],bioavailability [19] [%],SMILES,IC50 [1] [nM],IC50 [2] [nM],Ratio IC50 (Homo sapiens [6]),Ratio IC50 (Homo sapiens [7]),Ratio IC50 (Homo sapiens [8]),Ratio IC50 (Homo sapiens [9]),Ratio IC50 (Homo sapiens [10]),Ratio IC50 (Homo sapiens [11]),Activity (Rattus norvegicus)
212,79,15,2.5,–,–,–,–,–,–,–,CC1(C)OC(=O)N2C[C@H](c3nc(-c4ccc(C(=O)Nc5cc(C(F)(F)F)ccn5)cc4)c4c(N)nccn34)CC[C@H]21,0.12,34,2900,283,110,570,220,125,–
87,20,33,0.75,11,1.5,2.8,3.6,1700,1,100,Nc1nccn2c([C@@H]3CC[C@H]4CCC(=O)N4C3)nc(-c3ccc(C(=O)Nc4cc(C(F)(F)F)ccn4)cc3)c12,–,–,1620,–,59,330,630,330,Dose-dependent effect

SMILES,IC50 [3] [nM],IC50 [4] [nM],IC50 [5] [nM],Tmax [12] [h],clearance [13] [mL/min/kg],Vd [14] [L/kg],AUC [15] [µM·h],half-life [16] [h],Cmax [17] [nM],Tmax [18] [h],bioavailability [19] [%],IC50 [1] [nM],IC50 [2] [nM],Ratio IC50 (Homo sapiens [6]),Ratio IC50 (Homo sapiens [7]),Ratio IC50 (Homo sapiens [8]),Ratio IC50 (Homo sapiens [9]),Ratio IC50 (Homo sapiens [10]),Ratio IC50 (Homo sapiens [11]),Activity (Rattus norvegicus)
Nc1nccn2c([C@@H]3CC[C@H]4COC(=O)N4C3)nc(-c3ccc(C(=O)Nc4cc(C(F)(F)F)ccn4)cc3)c12,18,49,46,0.25,–,–,–,–,–,–,–,0.083,26,3500,313,132,1110,1110,554,–
